Melting point data for 36 compounds are collected here from US7238716B2, “Alkanoic acid derivatives process for their production and use thereof” (Takeda Pharmaceuticals Company Limited, priority 2000, dated 2007).

The term melting point denotes the temperature of the solid-liquid transition.

Structures are written as SMILES.

As for `COC(=O)Cc1cc(OC)ccc1OCc1ccc(OCc2nc(-c3ccccc3)oc2C)cc1` [Example 23, methyl 2-[5-methoxy-2-[4-[(5-methyl-2-phenyl-4-oxazolyl)methoxy]benzyloxy]phenyl]acetate], the melting point was 160 to 161 °C.

For the compound `Cc1oc(-c2ccccc2)nc1COc1ccc(COc2ccc(OCc3ccccc3)cc2CC(=O)O)cc1` [Example 27, 2-[5-benzyloxy-2-[4-[(5-methyl-2-phenyl-4-oxazolyl)methoxy]benzyloxy]phenyl]acetic acid], the melting point fell in the range of 140 to 141 °C.

For `Cc1oc(-c2ccccc2)nc1COc1cccc(COc2ccccc2CC(=O)O)c1` [Example 31, 2-[2-[3-[(5-methyl-2-phenyl-4-oxazolyl)methoxy]benzyloxy]phenyl]acetic acid], the melting point lay in the range of 117 to 118 °C.

In the case of `CCOc1ccc(OCc2cccc(OCc3nc(-c4ccccc4)oc3C)c2)cc1CCC(=O)O` [Example 33, 3-[2-ethoxy-5-[3-[(5-methyl-2-phenyl-4-oxazolyl)methoxy]benzyloxy]phenyl]propionic acid], the melting point was 136 to 137 °C.

As to `Cc1oc(-c2ccccc2)nc1COc1ccccc1COc1cccc(CC(=O)O)c1` [Example 34, 2-[3-[2-[(5-methyl-2-phenyl-4-oxazolyl)methoxy]benzyloxy]phenyl]acetic acid], the melting point lay within 104 to 105 °C.

Compound `CCOc1ccc(OCc2ccccc2OCc2nc(-c3ccccc3)oc2C)cc1CCC(=O)O` [Example 35, 3-[2-ethoxy-5-[2-[(5-methyl-2-phenyl-4-oxazolyl)methoxy]benzyloxy]phenyl]propionic acid] gave a melting point of 146 to 147 °C.

For the compound `Cc1oc(-c2ccccc2)nc1COc1ccc(COc2cncc(CC(=O)O)c2)cc1` [Example 38, 2-[5-[4-[(5-methyl-2-phenyl-4-oxazolyl)methoxy]benzyloxy]-3-pyridyl]acetic acid], the melting point was in the range of 139 to 140 °C.

In turn, `Cc1oc(-c2ccccc2)nc1COc1ccc(COc2ccc3ccccc3c2CC(=O)O)cc1` [Example 39, 2-[2-[4-[(5-methyl-2-phenyl-4-oxazolyl)methoxy]benzyloxy]-1-naphthyl]acetic acid] registered a melting point of 187 to 188 °C.

In turn, `COC(=O)Cc1ccccc1OCc1cncc(OCc2nc(-c3ccccc3)oc2C)c1` [Example 42, methyl 2-[2-[[5-[(5-methyl-2-phenyl-4-oxazolyl)methoxy]-3-pyridyl]methoxy]phenyl]acetate] registered a melting point of 77 to 78 °C.

Consider `Cc1oc(-c2ccccc2)nc1COc1cncc(COc2ccccc2CC(=O)O)c1` [Example 43, 2-[2-[[5-[(5-methyl-2-phenyl-4-oxazolyl)methoxy]-3-pyridyl]methoxy]phenyl]acetic acid], for which the melting point fell in the range of 207 to 208 °C.

With `CCOC(=O)CCc1ccc(OCc2ccc(OCc3nc(-c4ccccc4)oc3C)cc2)cc1` [Example 44, ethyl 3-[4-[4-[(5-methyl-2-phenyl-4-oxazolyl)methoxy]benzyloxy]phenyl]propionate], the melting point lay within 105 to 106 °C.

With `Cc1oc(-c2ccccc2)nc1COc1ccc(COc2ccc(CCC(=O)O)cc2)cc1` [Example 45, 3-[4-[4-[(5-methyl-2-phenyl-4-oxazolyl)methoxy]benzyloxy]phenyl]propionic acid], the melting point was 177 to 178 °C.

In turn, `CCOC(=O)CCc1c(OCc2ccc(OCc3nc(-c4ccccc4)oc3C)cc2)ccc2ccccc12` [Example 46, ethyl 3-[2-[4-[(5-methyl-2-phenyl-4-oxazolyl)methoxy]benzyloxy]-1-naphthyl]propionate] gave a melting point of 86 to 87 °C.

Take `Cc1oc(-c2ccccc2)nc1COc1ccc(COc2ccc3ccccc3c2CCC(=O)O)cc1` [Example 47, 3-[2-[4-[(5-methyl-2-phenyl-4-oxazolyl)methoxy]benzyloxy]-1-naphthyl]propionic acid]: the melting point lay within 161 to 162 °C.

The compound `COc1ccc(COc2ccccc2CC(=O)O)cc1OCc1nc(-c2ccccc2)oc1C` [Example 49, 2-[2-[4-methoxy-3-[(5-methyl-2-phenyl-4-oxazolyl)methoxy]benzyloxy]phenyl]acetic acid] yielded a melting point of 154 to 155 °C.

`Cc1oc(-c2ccccc2)nc1COc1ccc(COC(=O)Cc2cccc(OCc3ccc(OCc4nc(-c5ccccc5)oc4C)cc3)c2)cc1` [Example 53, 4-[(5-methyl-2-phenyl-4-oxazolyl)methoxy]benzyl 2-[3-[4-[(5-methyl-2-phenyl-4-oxazolyl)methoxy]benzyloxy]phenyl]acetate] yielded a melting point of 90 to 91 °C.

Compound `CCOC(=O)C=Cc1c(OCc2ccc(OCc3nc(-c4ccccc4)oc3C)cc2)ccc2ccccc12` [Example 54, ethyl 3-(2-(4-((5-methyl-2-phenyl-4-oxazolyl)methoxy)benzyloxy)-1-naphthyl)-2-propenoate] had a melting point of 73 to 74 °C.

In turn, `Cc1oc(-c2ccccc2)nc1COc1ccccc1COc1ccccc1CC(=O)O` [Example 56, 2-[2-[2-[(5-methyl-2-phenyl-4-oxazolyl)methoxy]benzyloxy]phenyl]acetic acid] showed a melting point of 145 to 146 °C.

For `COC(=O)Cc1ccccc1OCc1ccc(N(Cc2nc(-c3ccccc3)oc2C)C(=O)OC(C)(C)C)cc1` [Example 59, methyl 2-[2-[4-[(t-butoxycarbonyl)[(5-methyl-2-phenyl-4-oxazolyl)methyl]amino]benzyloxy]phenyl]acetate], the melting point was in the range of 85 to 86 °C.

For the compound `Cc1oc(-c2ccccc2)nc1COc1cccc(COc2cccc(CC(=O)O)c2)n1` [Example 64, 2-[3-[[6-[(5-methyl-2-phenyl-4-oxazolyl)methoxy]-2-pyridyl]methoxy]phenyl]acetic acid], the melting point lay in the range of 97 to 98 °C.

The compound `CCOC(=O)CCc1ccc(OCc2ccc(OCc3nc(-c4ccccc4)oc3C)cc2)cc1OCC` [Example 65, ethyl 3-[2-ethoxy-4-[4-[(5-methyl-2-phenyl-4-oxazolyl)methoxy]benzyloxy]phenyl]propionate] came in with a melting point of 64 to 65 °C.

Turning to `Cc1oc(-c2ccccc2)nc1COc1ccc(CSc2ccc(CCC(=O)O)cc2)cc1` [Example 67, 3-[4-[[4-[(5-methyl-2-phenyl-4-oxazolyl)methoxy]benzyl]sulfanyl]phenyl]propionic acid], the melting point was 157 to 158 °C.

`Cc1oc(-c2ccccc2)nc1COc1cccc(COc2ccc(CC(=O)O)cc2)c1` [Example 68, 2-[4-[3-[(5-methyl-2-phenyl-4-oxazolyl)methoxy]benzyloxy]phenyl]acetic acid] had a melting point of 179 to 180 °C.

Regarding `Cc1oc(-c2ccccc2)nc1COc1ccccc1COc1ccc(CC(=O)O)cc1` [Example 69, 2-[4-[2-[(5-methyl-2-phenyl-4-oxazolyl)methoxy]benzyloxy]phenyl]acetic acid], the melting point lay in the range of 173 to 174 °C.

`CCOc1cc(OCc2ccccc2OCc2nc(-c3ccccc3)oc2C)ccc1CCC(=O)O` [Example 73, 3-[2-ethoxy-4-[2-[(5-methyl-2-phenyl-4-oxazolyl)methoxy]benzyloxy]phenyl]propionic acid]: the melting point was in the range of 112 to 113 °C.

Consider `Cc1oc(-c2ccccc2)nc1COc1cncc(COc2ccc(CC(=O)O)cc2)c1` [Example 75, 2-[4-[5-[(5-methyl-2-phenyl-4-oxazolyl)methoxy]-3-pyridylmethoxy]phenyl]acetic acid], for which the melting point was 141 to 142 °C.

In the case of `Cc1oc(-c2ccccc2)nc1COc1cccc(COc2cncc(CC(=O)O)c2)c1` [Example 76, 2-[5-[3-[(5-methyl-2-phenyl-4-oxazolyl)methoxy]benzyloxy]-3-pyridyl]acetic acid], the melting point lay in the range of 158 to 159 °C.

Turning to `CCCc1oc(-c2ccccc2)nc1COc1ccc(COc2cccc(CC(=O)O)c2)cc1` [Example 87, 2-[3-[4-[(2-phenyl-5-propyl-4-oxazolyl)methoxy]benzyloxy]phenyl]acetic acid], the melting point was 115 to 116 °C.

Compound `Cc1oc(-c2ccccc2)nc1/C=C/c1ccc(COc2ccccc2CC(=O)O)cc1` [Example 95, 2-[2-[4-[(E)-2-(5-methyl-2-phenyl-4-oxazolyl)ethenyl]benzyloxy]phenyl]acetic acid] came in with a melting point of 189 to 190 °C.

As to `Cc1oc(-c2ccccc2)nc1CCc1nc(COc2cccc(CC(=O)O)c2)cs1` [Example 105, 2-[3-[[2-[2-(5-methyl-2-phenyl-4-oxazolyl)ethyl]-4-thiazolyl]methoxy]phenyl]acetic acid], the melting point lay in the range of 153 to 154 °C.

Take `Cc1oc(-c2ccccc2)nc1CCc1noc(COc2cccc(CC(=O)O)c2)n1` [Example 109, 2-[3-[[3-[2-(5-methyl-2-phenyl-4-oxazolyl)ethyl]-1,2,4-oxadiazol-5-yl]methoxy]phenyl]acetic acid]: the melting point lay within 93 to 94 °C.

In turn, `Cc1oc(-c2ccccc2)nc1CCOc1ccc(COc2ncccc2CC(=O)O)cc1` [Example 111, 2-[2-[4-[2-(5-methyl-2-phenyl-4-oxazolyl)ethoxy]benzyloxy]-3-pyridyl]acetic acid] displayed a melting point of 134 to 135 °C.

Consider `COC(=O)Cc1ccccc1OCc1cc(OCc2nc(-c3ccccc3)sc2C)no1` [Example 113, methyl 2-[2-[[3-[(5-methyl-2-phenyl-4-thiazolyl)methoxy]-5-isoxazolyl]methoxy]phenyl]acetate], for which the melting point was 108 to 109 °C.

As for `Cc1sc(-c2ccccc2)nc1COc1cc(COc2ccccc2CC(=O)O)on1` [Example 114, 2-[2-[[3-[(5-methyl-2-phenyl-4-thiazolyl)methoxy]-5-isoxazolyl]methoxy]phenyl]acetic acid], the melting point fell in the range of 147 to 148 °C.

In turn, `COC(=O)Cc1ccccc1OCc1cc(OCCc2nc(-c3ccccc3)sc2C)no1` [Example 116, methyl 2-[2-[[3-[2-(5-methyl-2-phenyl-4-thiazolyl)ethoxy]-5-isoxazolyl]methoxy]phenyl]acetate] displayed a melting point of 80 to 81 °C.

In turn, `Cc1sc(-c2ccccc2)nc1CCOc1cc(COc2ccccc2CC(=O)O)on1` [Example 117, 2-[2-[[3-[2-(5-methyl-2-phenyl-4-thiazolyl)ethoxy]-5-isoxazolyl]methoxy]phenyl]acetic acid] returned a melting point of 159 to 160 °C.
